Earlier results, collected in patent US9238073B2, “Pharmaceutical composition containing sympathomimetic amine salt and co-distillable additive” (Wyeth LLC, priority 2006, dated 2016).

Settings: (R)-methamphetamine from reduction of (-)-pseudoephedrine

## (R)-methamphetamine
  psychoactivity relative to (S)-methamphetamine: one-tenth
